Measurements taken from patent US20170049843A1, “Hepatocyte Growth Factor Mimics as Therapeutic Agents” (WASHINGTON STATE UNIVERSITY, priority 2011, published 2017).
“Also recorded” adds a separate entry of the source. Like-named read-outs stand apart in the source and are kept apart here. Where a SMILES comes first, the peptide text is derived from it. [ ]: non-standard residue; d: D form. The star is where a group is joined. Hexanoyl = CCCCCC(=O)*; Ahx = NCCCCCC(=O)O

Assays:
[1] = biological target: T1, HGF (Homo sapiens, UniProt P14210); assay: HGF dimerization; format: biochemical; settings: Dihexa, 30 minutes in the presence of heparin
T1 construct: purchased R&D Systems (Minneapolis, Minn.)
T1 sequence (P14210 32-728): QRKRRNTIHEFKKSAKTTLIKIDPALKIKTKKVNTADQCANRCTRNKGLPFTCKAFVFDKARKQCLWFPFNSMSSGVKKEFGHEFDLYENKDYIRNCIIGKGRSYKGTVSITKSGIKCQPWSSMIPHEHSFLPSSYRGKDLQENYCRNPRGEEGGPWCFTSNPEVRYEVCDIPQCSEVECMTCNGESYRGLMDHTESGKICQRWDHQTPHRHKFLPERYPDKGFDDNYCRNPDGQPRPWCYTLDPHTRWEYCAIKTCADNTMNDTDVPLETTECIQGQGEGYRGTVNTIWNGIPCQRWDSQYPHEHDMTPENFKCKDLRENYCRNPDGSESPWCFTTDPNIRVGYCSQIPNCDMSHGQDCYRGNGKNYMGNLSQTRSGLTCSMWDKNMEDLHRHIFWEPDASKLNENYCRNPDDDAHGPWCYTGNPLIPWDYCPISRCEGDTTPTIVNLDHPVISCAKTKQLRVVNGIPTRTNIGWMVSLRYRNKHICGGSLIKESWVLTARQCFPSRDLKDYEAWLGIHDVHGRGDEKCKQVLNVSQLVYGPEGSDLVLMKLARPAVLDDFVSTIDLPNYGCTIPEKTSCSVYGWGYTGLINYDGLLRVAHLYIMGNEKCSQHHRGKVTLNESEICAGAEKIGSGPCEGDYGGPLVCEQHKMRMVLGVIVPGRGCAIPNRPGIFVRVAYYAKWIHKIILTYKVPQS
Protocol: HGF dimerization was assessed using PAGE followed by silver staining (Kawas et al., 2011). Human HGF at a concentration of 0.08 ng/μl with or without 6-AH analogs was incubated with heparin at a final concentration of 5 μg/ml. Loading buffer was then added to each sample and the mixture separated by native PAGE using gradient Criterion XT precast gels (4-12% Bis-Tris; Biorad Laboratories, Hercules, Calif.). Next the gel was silver stained for the detection of the HGF monomers and dimers. Bands were quantitated from digital images using a UVP phosphoimager (Upland, Calif.).

[2] = tested on: aged rats; assay: Morris water maze, aged rat model; format: in vivo; settings: oral 2 mg/kg/day, 8 days, vs untreated
Protocol: FIG. 37. Dihexa improves spatial learning in aged rats. Group latencies to find the submerged platform in the Morris water maze task of spatial memory are shown. Five minutes before beginning testing 24 month old mixed sex (3 male and 3 female/group) Sprague Dawley rats were administered […] (2 mg/kg) orally by gavage (suspension in isotonic NaCl), on a daily basis. There were 5 trials per day for 8 days. The latency to find the pedestal was considered a measure of learning and memory. […] Swim speed was determined from these values.

[3] = tested on: hippocampal neurons; assay: Protection of hippocampal neurons from oxidative stress (H2O2); format: cell-based; settings: 100 μM H2O2, 24 hrs, +/− HGF sub-threshold
Protocol: FIG. 47. […] Dissociated hippocampal neurons were treated with 100 μM H2O2 for 24 hrs+/−HGF at sub-threshold concentrations […] and or Dihexa at 2 different concentrations 10^−8M and 10^−8M. (+p<0.05, ++p<0.0I; Mean+/−SEM).

[4] = tested on: hippocampal neurons; assay: Protection of hippocampal neurons from growth factor deprivation; format: cell-based; settings: starved 72 hrs, +/− HGF sub-threshold
Protocol: FIG. 46. […] Dissociated hippocampal neurons were starved for 72 hrs+/−HGF at sub-threshold concentrations […] and or Dihexa at 2 different concentrations 10^−8M and 10^−8M. (**p<0.001.*** p<0.000I; Mean+/−SEM).

[5] = Microsomal metabolism, rat liver microsomes; format: in vitro ADME; settings: pooled rat liver microsomes, n=3
[6] = tested on: hippocampal neurons; assay: Spinogenesis in mRFP-β-actin transfected dissociated hippocampal neurons; format: cell-based, rat; settings: 10^−12 M, acute 30 minute application on DIV12; vehicle 17.4
[7] = tested on: 6-OHDA rat; assay: 6-OHDA lesioned rat, motor tests; format: in vivo
Protocol: FIG. 48. Dihexa restores performance in the rope hang test. After 2 weeks of 6-OHDA lesion, rats were treated with either 0.5 mg/kg or equivalent volumes of the vehicle ip.
FIG. 49. […] Baseline was calculated from 4 naïve animals to get the pre-op baseline for normal un-lesioned animals. 2 animals were lesioned with 6-OHDA in the right Hemisphere. 14 days post-op, treatment with vehicle started. 2 animals were lesioned with 6-OHDA in the right Hemisphere. 14 days post-op, treatment with Dihexa started. Animals were tested every other day. Dosing regimen (2 mg/kg by oral gavage/48 hrs).

[8] = Blood stability studies; format: in vitro ADME, rat; settings: data not shown
[9] = Brain uptake of 3H-dihexa after carotid infusion; format: in vivo, rat; settings: 30 minutes after infusion
Protocol: FIG. 32. […] Rats fitted with a carotid cannula were anesthetized and infused with 0.5 ml of isotonic saline containing 10 μCi of ^3H-dihexa and 2 μCi ^14C-Inulin, a vascular marker. Thirty minutes after infusion the rats were decapitated, the brains removed, and various brain regions dissected. The tissues were then weighed and solubilized with NCS, an organic protein solubilizing agent, and 10 ml of scintillation was added. Samples were counted with a scintillation counter using two different windows to quantitate both ^3H and ^14C counts. ^3H/^14C ratios were determined so that blood derived dihexa contamination of tissues could be determined. […] The average ^3H/^14C for blood was 1687. Mean+/−S.E.M.: n=4.

[10] = tested on: scopolamine treated rats; assay: Morris water maze, scopolamine amnesia model; format: in vivo, rat
[11] = tested on: MDCK cells; assay: Augmentation of HGF-dependent cell scattering in MDCK cells; format: cell-based, canine
Protocol: HGF mimetic activity was typically assessed by one or both of two methods: augmentation of HGF-dependent c-Met phosphorylation in HEK293 cells, or 2) augmentation of HGF-dependent cell scattering in MDCK cells. All the compounds in Family one were tested using the c-Met phosphorylation assay. […]
MDCK cells were grown to 100% confluency on the coverslips in six-well plates and washed twice with PBS. The confluent coverslips were then aseptically transferred to new six well plates containing 900 μl serum free DMEM. Norleual, Hinge peptide, and/or HGF (2.5 ng/ml) were added to appropriate wells. Control wells received PBS vehicle. Plates were incubated at 37° C. with 5% CO2 for 48 hours. Media was removed and cells were fixed with methanol. Cells were stained with Diff-Quik Wright-Giemsa (Dade-Behring, Newark, Del.) and digital images were taken. Coverslips were removed with forceps and more digital images were captured. Pixel quantification of images was achieved using Image J and statistics were performed using Prism 5 and InStat v.3.05.

[12] = icv, scopolamine 70 nmol, Dihexa 300 pmol, Hinge 300 pmol, vehicle 43.0 s

SMILES: CCCCCC(=O)N[C@@H](Cc1ccc(O)cc1)C(=O)N[C@H](C(=O)NCCCCCC(N)=O)[C@@H](C)CC [Dihexa, N-hexanoic-Tyr-Ile-(6)-aminohexanoic amide] (Hexanoyl-Tyr-Ile-[Ahx]-NH2)
- inhibition of HGF dimerization [1]: blocks HGF dimerization
- water maze performance (latency) of aged rats [2]: preformed significantly better in the water maze than untreated rats; also recorded: performed significantly better than untreated controls; also recorded: significantly different than that of the non-treated rats
- protection of neurons from oxidative stress [3]: protects neurons from oxidative stress
- protection of neurons from growth factor deprivation [4]: protects neurons from growth factor deprivation
- average half-life, Phase I metabolism [5]: 8.49 h
- average intrinsic clearance (Clin) [5]: 2.72 µL/min/mg
- mean spine numbers per 50 μm dendrite length [6]: 23.9 spines per 50 μm dendrite length
- performance in the rope hang test ([7]; 0.5 mg/kg ip, 2 weeks after 6-OHDA lesion): completely restored the performance
- motor deficits in the 6-OHDA rat ([7]; 2 mg/kg by oral gavage/48 hrs, from 14 days post-op): reverses motor deficits
- stable in the blood [8]: over 5 hours
- concentration of dihexa in brain regions compared to blood ([9]; 3H/14C ratios): all brain regions concentrated dihexa
- average 3H/14C ratio for blood ([9]; 10 μCi 3H-dihexa and 2 μCi 14C-Inulin, n=4): 1687
- latency to find the pedestal in the water maze (reversal of scopolamine deficits) ([10]; ICV 10 pmoles (low dose)): but not 10 pmoles
- latency to find the pedestal in the water maze (reversal of scopolamine deficits) ([10]; ICV 100 pmoles (high dose), daily, 8 days): reversed scopolamine-dependent learning deficits; also recorded: completely overcome the scopolamine deficits
- group latency to find the submerged platform ([10]; icv 0.1 nmol after scopolamine, days 5-8): significantly improved performance
- group latency to find the submerged platform ([10]; icv 1 nmol after scopolamine): different from the scopolamine group
- time in the target quadrant, day 9 probe trial ([10]; icv 1 nmol after scopolamine, vs vehicle control): not different
- mean latency to find the pedestal, final day of training [10, 12]: 62.3 s
- mean latency to find the pedestal, fourth day of training [10, 12]: 63.0 s
- mean latency to find the pedestal, day one of training ([10]; icv, scopolamine 70 nmol, Dihexa 300 pmol, Hinge 300 pmol, vehicle 89.3 s): 115.2 s
- group latency to find the submerged platform ([10]; ip 0.05 mg/kg after scopolamine): not different than the scopolamine group
- group latency to find the submerged platform ([10]; ip 0.25 mg/kg after scopolamine): different than the scopolamine
- group latency to find the submerged platform ([10]; ip 0.50 mg/kg after scopolamine, 0.5 mg/kg): different than the scopolamine; also recorded: not different than the vehicle control group
- time in the target quadrant, day 9 probe trial ([10]; ip delivery, each dose group vs scopolamine→PBS): Each of the treatment groups was different than the scopolamine
- latency to find the pedestal in the water maze (reversal of scopolamine deficits) ([10]; oral 1.25 mg/kg (low dose), days 3-8): partially reversed
- latency to find the pedestal in the water maze (reversal of scopolamine deficits) ([10]; oral 2 mg/kg/day (high dose), 2 mg/kg/day): no different than controls; also recorded: completely overcome the scopolamine deficits; also recorded: completely reversed the scopolamine-dependent learning deficit
- time in the target quadrant, day 9 probe trial ([10]; oral delivery, both dose groups vs scopolamine→PBS): Both of the treatment groups were different than the scopolamine
- augmentation of HGF-dependent MDCK cell scattering [11]: stimulate MDCK cell scattering
- augmentation of HGF-dependent MDCK cell scattering ([11]; listed as N-hexanoyl-Tyr-Ile-(6) aminohexamide): spectacularly augment HGF-dependent MDCK cell scattering
